Earlier results on two compounds are cited in patent US7625919B2, “4-azasteroid derivatives as androgen receptor modulators” (priority 2002, dated 2009).

The conditions of series [1]: after 7 years of treatment.
The conditions of series [2]: postmenopausal osteoporotic women, median of 22 months of treatment.

As to `NCCCC(O)(P(=O)([O-])O)P(=O)(O)O.O.O.O.[Na+]` [alendronate, (4-amino-1-hydroxybutylidene)-bis-phosphonate monosodium trihydrate], in series [1], the “increase in spinal BMD” value is 11%.
Consider “hPTH(1-34): human parathyroid hormone 1-34 fragment (SVSEIQLMHNLGKHLNSMERVEWLRKKLQDVHNF; Parathyroid hormone; UniProt P01270 32-65, looked up, fragment)”, for which, in series [2], the “reduction in nonvertebral fractures” value is given as 54% and the “reduction in spine fractures” value was ≥ 65%.
